Data on two molecules can be found in patent publication US20060194699A1, “Sprayable non-aqueous, oil-continuous microemulsions and methods of making same” (priority 2003, published 2006).

For data set [1] the following is noted: cited from earlier work.
The conditions of data set [2]: cited from earlier work. This is another data set of the same source.
Data set [3] can be described thus: Solubility. Format: physicochemical. The conditions noted are these: 25° C. and pH 4.3.

Read-outs that look alike come from different tables or passages of the source.

Turning to `O=C(O)CNCP(=O)(O)O` [glyphosate, N-phosphonomethylglycine], in data set [1], the “pKa (first of three printed)” value is recorded as 2.74, the “pKa (second of three printed)” value is on record as 5.63 and the “pKa (third of three printed)” value is 10.18. Also, the solubility in water in data set [2] (25° C.) is listed as 11.6 grams per liter of water. Moreover, the “solubility in common organic solvents” value in data set [2] (acetone, alcohol and xylene) is “insoluble”.

For the molecule `CC(C)N.O=C(O)CNCP(=O)(O)O` [isopropylamine salt of glyphosate], the “solubility in water as equivalent PMG-acid” value in data set [3] (per 1000 g water) is given as 778 grams of equivalent PMG-acid per liter. Further, the “weight percent "acid" in the saturated solution” value in data set [3] (saturated aqueous solution) is 37.95%. Also, in data set [2] (25° C. and pH 4.3), the solubility in water is reported as 1050 grams of salt in a liter of water.
